Target: T1, CCR5 receptor (Homo sapiens, UniProt P51681)
T1 construct: expressed in transfected cells; host or cells: Chinese hamster ovary (CHO) cells expressing the CCR5 receptor, kept under blasticidin S selection
Test: CCR5 binding inhibition assay in CHO cells expressing the CCR5 receptor
Description: All of the reagents and cell lines were obtained from commercial suppliers like Sigma Aldrich, Merck India Ltd., Himedia, and Rankem chemicals. Chinese Hamster Ovaries (CHO) cells expressing the CCR5 receptor were maintained in Ham's F-12 medium supplemented with 10% fetal calf serum, 50 units of penicillin per milliliter, and 50 micrograms of streptomycin per milliliter, in the presence of 5 micrograms of blasticidin S hydrochloride per milliliter. […] The cells were then washed. […] The inhibitory activity of the compounds on CCR5 binding was calculated using the formula: [1−(E−N)/(P−N)]×100%.
In this formula, N represents the absorbance at 450 nm in the negative control (the control antibody), while P corresponds to the absorbance in the positive control (the detecting antibody). E corresponds to the absorbance of the test compounds.
The data was analyzed using non-linear regression analysis to determine the IC50 values for both compounds.

T1 sequence (P51681 whole entry): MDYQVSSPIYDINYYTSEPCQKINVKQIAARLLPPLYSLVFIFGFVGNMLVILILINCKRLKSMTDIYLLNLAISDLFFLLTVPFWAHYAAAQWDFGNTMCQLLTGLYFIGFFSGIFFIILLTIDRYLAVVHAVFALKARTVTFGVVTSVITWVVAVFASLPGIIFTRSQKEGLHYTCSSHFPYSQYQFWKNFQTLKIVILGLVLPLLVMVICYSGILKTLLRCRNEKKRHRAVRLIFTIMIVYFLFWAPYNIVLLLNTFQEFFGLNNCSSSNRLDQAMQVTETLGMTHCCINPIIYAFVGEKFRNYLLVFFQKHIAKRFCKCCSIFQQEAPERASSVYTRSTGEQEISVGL

Row | Molecule | Percent inhibition against CCR5 (1 nM compound, listed as test compound, 0.001 µM) [%] | inhibition at 0.001 µM (1 nM compound, read-out: Percent inhibition against CCR5) [%] | Percent inhibition against CCR5 (10 nM compound, listed as test compound, 0.01 µM) [%] | inhibition at 0.01 µM (10 nM compound, read-out: Percent inhibition against CCR5) [%] | Percent inhibition against CCR5 (100 nM compound, 0.1 µM) [%] | inhibition at 0.1 µM (100 nM compound, read-out: Percent inhibition against CCR5) [%] | Percent inhibition against CCR5 (1000 nM compound, 1 µM) [%] | inhibition at 1 µM (1000 nM compound, read-out: Percent inhibition against CCR5) [%] | Percent inhibition against CCR5 (2000 nM compound, listed as test compound, 2 µM) [%] | inhibition at 2 µM (2000 nM compound, read-out: Percent inhibition against CCR5) [%] | IC50 (non-linear regression) [nM] | Percent inhibition against CCR5 (1 nM compound) [%] | Percent inhibition against CCR5 (10 nM compound) [%] | Percent inhibition against CCR5 (100 nM compound) [%] | Percent inhibition against CCR5 (1000 nM compound) [%] | Percent inhibition against CCR5 (2000 nM compound) [%]
1 | Cc1n[nH]c(C(C)C)c1C(=O)N1CCCN(Cc2ccc(Oc3ccc(C#N)cc3)cc2)CC1 [Novel Compound, 4-(4-((4-(5-isopropyl-3-methyl-1H-pyrazole-4-carbonyl)-1,4-diazepan-1-yl)methyl)phenoxy)benzonitrile] | 24.5 | ≥ 24.5 | 39.8 | ≥ 39.8 | 59.1 ± 3.12 | ≥ 59.1 | 78.2 ± 4.75 | ≥ 78.2 | 91.3 | ≥ 91.3 | 2.62 |  |  |  |  | 
2 | Maraviroc [reference compound] |  |  |  |  |  |  |  |  |  |  |  | 20.0 ± 1.93 | 28.5 ± 2.40 | 55.1 ± 2.81 | 68.2 ± 2.97 | 85.3

Source: patent publication US12441688B1, “CCR5 inhibitor” (KING SAUD UNIVERSITY, priority 2025, dated 2025)
